Reference: patent US7833967B2, “Synthetic antimicrobial polypeptides” (priority 2003, dated 2010)

Each substance was assayed on E. coli TOP10 (assay: Suicide expression system (SES) growth inhibition). Details: Table 1; 0.1% inducer (arabinose), pBAD/gIIIA in E. coli TOP10, Bioscreen C 37° C., end point OD450 vs control vector.
Type: cell-based

| Substance | Growth inhibition (%) |
| --- | --- |
| 8 (RRRFPRPFPRPFPRPFPRPFPRPFPRP; Synthetic antimicrobial peptide) [compound 8] | 38 |
| 12 (RRRRPPFRPPFRPPFRPPFRPPFRPPF; Synthetic antimicrobial peptide) [compound 12] | 76 |
| 5 (RRRPRPFPRPFPRPFPRPFPRPFPRPF; Synthetic antimicrobial peptide) [compound 5] | 57 |

Same assay, conditions: Table 2; variants of SEQ ID NO:1, re-tested in the Bioscreen C

| Substance | Growth inhibition (%) |
| --- | --- |
| 24 (RRRPPRLPPRFPPRFPPRVPPRVPPRF; Synthetic antimicrobial peptide) [compound 24] | 90 |

Same assay, conditions: Table 3; variants of SEQ ID NO:5, re-tested in the Bioscreen C

| Substance | Growth inhibition (%) |
| --- | --- |
| 40 (RRRPRPFPRPFPRPFPRPVPRPLPRPI; Synthetic antimicrobial peptide) [compound 40] | 69 |
| 39 (RRRPRPFPRPFPRPFPRPLPRPFPRPF; Synthetic antimicrobial peptide) [compound 39] | 56 |
| 41 (RRRPRPFPRPFPRPFPRPVPRPLPRPV; Synthetic antimicrobial peptide) [compound 41] | 71 |
| 30 (RRRPRPFPPPFPRPIPRPFPRPFPRPL; Synthetic antimicrobial peptide) [compound 30] | 61 |
| 57 (RRRPRPIPRPFPRPIPRPIPRPFPRPF; Synthetic antimicrobial peptide) [compound 57] | 73 |
| 31 (RRRPRPFPRPFPHPFPRPFPRPIPRPI; Synthetic antimicrobial peptide) [compound 31] | 73 |
| 45 (RRRPRPFPRPFPRPLPRPIPRPFPRPV; Synthetic antimicrobial peptide) [compound 45] | 69 |
| 55 (RRRPRPFPRPVPRPVPRPFPRPLPRPI; Synthetic antimicrobial peptide) [compound 55] | 63 |

Same assay, conditions: Table 4; variants of SEQ ID NO:10, re-tested in the Bioscreen C

| Substance | Growth inhibition (%) |
| --- | --- |
| 118 (RRRPFRPPFRPPLRPPFRPPVRPPLRP; Synthetic antimicrobial peptide) [compound 118] | 73 |
| 163 (RRRPIRPPFRPPFRPPFRPPIRPPIRP; Synthetic antimicrobial peptide) [compound 163] | 79 |
| 171 (RRRPIRPPIRPPIRPPIRPPFRPPFRP; Synthetic antimicrobial peptide) [compound 171] | 77 |
| 146 (RRRPLRPPFRPPIRPPFRPPFRPPLRP; Synthetic antimicrobial peptide) [compound 146] | 68 |
| 88 (RRRPFRPPLRPPLRPPVRPPVRPPFRP; Synthetic antimicrobial peptide) [compound 88] | 82 |
| 90 (RRRPFRPPIRPPFRPPFRPPVRPPFRP; Synthetic antimicrobial peptide) [compound 90] | 74 |
| 202 (RRRPFRPPFRPPFRPPLRPPFRPPFRP; Synthetic antimicrobial peptide) [compound 202] | 84 |
| 184 (RRRPIRPPIRPPFRPPLRPPFRPPFRP; Synthetic antimicrobial peptide) [compound 184] | 78 |
| 187 (RRRPIRPPFRPPFRPPVRPPFRPPFRP; Synthetic antimicrobial peptide) [compound 187] | 85 |
| 102 (RRRPIRPPFRPPIRPPFRPPLRPPFRP; Synthetic antimicrobial peptide) [compound 102] | 77 |
| 67 (RRRPLRPPLRPPIRPPFRPPVRPPFRP; Synthetic antimicrobial peptide) [compound 67] | 80 |
| 180 (RRRPLRPPIRPPIRPPIRPPFRPPFRP; Synthetic antimicrobial peptide) [compound 180] | 76 |
| 141 (RRRPIRPPIRPPFRPPFRPPLRPPIRP; Synthetic antimicrobial peptide) [compound 141] | 65 |
| 205 (RRRPFRPPFRPPIRPPVRPPFRPPFRP; Synthetic antimicrobial peptide) [compound 205] | 77 |
| 179 (RRRPFRPPIRPPIRPPFRPPFRPPFRP; Synthetic antimicrobial peptide) [compound 179] | 87 |
| 176 (RRRPLRPPVRPPIRPPIRPPFRPPFRP; Synthetic antimicrobial peptide) [compound 176] | 81 |
| 149 (RRRPIRPPIRPPFRPPFRPPVRPPVRP; Synthetic antimicrobial peptide) [compound 149] | 62 |
| 148 (RRRPIRPPFRPPFRPPFRPPFRPPLRP; Synthetic antimicrobial peptide) [compound 148] | 76 |
| 85 (RRRPFRPPIRPPIRPPFRPPFRPPIRP; Synthetic antimicrobial peptide) [compound 85] | 67 |
| 143 (RRRPFRPPVRPPVRPPFRPPLRPPVRP; Synthetic antimicrobial peptide) [compound 143] | 43 |
| 89 (RRRPFRPPFRPPFRPPVRPPVRPPLRP; Synthetic antimicrobial peptide) [compound 89] | 70 |
| 203 (RRRPFRPPIRPPFRPPIRPPFRPPFRP; Synthetic antimicrobial peptide) [compound 203] | 79 |
| 196 (RRRPFRPPLRPPIRPPIRPPFRPPFRP; Synthetic antimicrobial peptide) [compound 196] | 77 |

Same assay, conditions: Table 5; mixed-motif library, re-tested in the Bioscreen C

| Substance | Growth inhibition (%) |
| --- | --- |
| 223 (RRRPPRLPRPFPIRPPPRLPRPLPFRP; Synthetic antimicrobial peptide) [compound 223] | 90 |
| 215 (RRRPPRLPRPFPFRPPPRPRPFPFRP; Synthetic antimicrobial peptide) [compound 215] | 94 |
| 226 (RRRPPRLPRPFPIRPPPRVPRPIPVRP; Synthetic antimicrobial peptide) [compound 226] | 94 |
| 283 (RRRPPRLPRPLPVRPPPRFPRPVPFRP; Synthetic antimicrobial peptide) [compound 283] | 95 |
| 279 (RRRPPRLPRPLPIRPPPRVPRPLPLRP; Synthetic antimicrobial peptide) [compound 279] | 91 |
| 228 (RRRPPRLPRPFPLRPPPRFPRPFPIRP; Synthetic antimicrobial peptide) [compound 228] | 96 |
| 244 (RRRPPRLPRPFPVRPPPRLPRPVPFRP; Synthetic antimicrobial peptide) [compound 244] | 90 |
| 213 (RRRPPRLPRPFPFRPPPRLPRPFPIRP; Synthetic antimicrobial peptide) [compound 213] | 94 |
| 252 (RRRPPRLPRPIPFRPPPRIPRPVPVRP; Synthetic antimicrobial peptide) [compound 252] | 92 |
| 309 (RRRPPRVPRPFPIRPPPRVPRPIPFRP; Synthetic antimicrobial peptide) [compound 309] | 76 |
| 307 (RRRPPRLPRPVPVRPPPRVPRPVPFRP; Synthetic antimicrobial peptide) [compound 307] | 92 |
| 234 (RRRPPRLPRPFPLRPPPRVPRPLPIRP; Synthetic antimicrobial peptide) [compound 234] | 93 |
| 302 (RRRPPRLPRPVPLRPPPRFPRPVPVRP; Synthetic antimicrobial peptide) [compound 302] | 82 |
| 227 (RRRPPRLPRPFPIRPPPRVPRPVPIRP; Synthetic antimicrobial peptide) [compound 227] | 94 |
| 296 (RRRPPRLPRPVPFRPPPRVPRPIPFRP; Synthetic antimicrobial peptide) [compound 296] | 88 |
| 266 (RRRPPRLPRPLPFRPPPRLPRPVPVRP; Synthetic antimicrobial peptide) [compound 266] | 94 |
| 314 (RRRPPRVPRPLPFRPPPRFPRPIPFRP; Synthetic antimicrobial peptide) [compound 314] | 94 |
| 245 (RRRPPRLPRPFPVRPPPRVPRPFPVRP; Synthetic antimicrobial peptide) [compound 245] | 95 |
| 300 (RRRPPRLPRPVPIRPPPRIPRPIPFRP; Synthetic antimicrobial peptide) [compound 300] | 92 |
| 272 (RRRPPRLPRPLPIRPPPRFPRPIPVRP; Synthetic antimicrobial peptide) [compound 272] | 91 |
| 217 (RRRPPRLPRPFPFRPPPRVPRPFPLRP; Synthetic antimicrobial peptide) [compound 217] | 93 |
| 311 (RRRPPRVPRPFPVRPPPRFPRPVPFRP; Synthetic antimicrobial peptide) [compound 311] | 96 |
| 259 (RRRPPRLPRPIPVRPPPRFPRPIPVRP; Synthetic antimicrobial peptide) [compound 259] | 98 |
| 305 (RRRPPRLPRPVPVRPPPRFPRPVPVRP; Synthetic antimicrobial peptide) [compound 305] | 90 |
